IC50 data for 2 compounds are collected here from ChEMBL document CHEMBL1201862, “PubChem BioAssay data set” (2004).

Active and inactive are the calls of the source. Rule as the data show it: actives have a measured IC50 and inactives only a lower limit.

The target of this assay is Envelope glycoprotein gp160 (Human immunodeficiency virus 1, UniProt Q6QLK5). Put plainly: inhibitors of HIV fusion peptide binding, primary screen, biochemical, uHTS, fluorescence dequenching (AID 1986).
Envelope glycoprotein gp160, sequence (Q6QLK5 whole entry, the tested form may be a part): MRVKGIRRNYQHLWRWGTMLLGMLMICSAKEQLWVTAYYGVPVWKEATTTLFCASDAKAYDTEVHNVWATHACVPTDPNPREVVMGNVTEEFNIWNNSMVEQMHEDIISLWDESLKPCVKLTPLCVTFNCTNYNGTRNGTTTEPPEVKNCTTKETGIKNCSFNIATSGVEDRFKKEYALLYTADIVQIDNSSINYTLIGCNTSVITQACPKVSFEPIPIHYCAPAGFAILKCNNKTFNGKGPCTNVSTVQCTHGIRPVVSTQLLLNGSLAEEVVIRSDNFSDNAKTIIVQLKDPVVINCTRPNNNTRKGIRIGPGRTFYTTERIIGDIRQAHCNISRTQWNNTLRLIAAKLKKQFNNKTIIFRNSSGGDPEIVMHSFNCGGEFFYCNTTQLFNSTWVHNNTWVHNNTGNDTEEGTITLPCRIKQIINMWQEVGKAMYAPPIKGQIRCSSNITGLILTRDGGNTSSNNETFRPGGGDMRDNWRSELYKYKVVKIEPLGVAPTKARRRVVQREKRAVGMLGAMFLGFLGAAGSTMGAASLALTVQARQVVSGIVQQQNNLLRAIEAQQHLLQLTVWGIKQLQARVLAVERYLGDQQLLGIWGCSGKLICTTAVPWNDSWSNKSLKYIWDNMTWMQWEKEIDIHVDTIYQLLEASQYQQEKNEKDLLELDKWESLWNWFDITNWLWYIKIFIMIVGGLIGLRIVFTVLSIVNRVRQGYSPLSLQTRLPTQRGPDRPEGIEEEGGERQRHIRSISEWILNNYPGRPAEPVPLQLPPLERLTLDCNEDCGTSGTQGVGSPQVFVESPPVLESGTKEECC

For `O=C(O)c1ccccc1NS(=O)(=O)c1ccc(NNC(=S)Nc2ccc(OC(F)F)cc2)c([N+](=O)[O-])c1`, the half-maximal inhibitory concentration (IC50) (as a rule, the concentration that gives 50% inhibition) is 8.21 µM (active). The result for `O=C(O)CN1C(=O)/C(=C\c2cccc(OCc3ccc(Cl)cc3Cl)c2)SC1=S` reads 13.1 µM (active).
